Laboratory results taken from patent US20180057553A1, “CONJUGATE AND USE THEREOF” (The University of Tokyo, priority 2015, published 2018).

Biological target: T1, Recombinant human intelectin-1 (Homo sapiens, UniProt Q8WWA0, V109D)
Assay: Inhibition of the binding of intelectin to a 3-amino-1-propanediol sensor chip by various compounds (Biacore, Example 3)
Conditions: not given
Experimental: The binding of purified intelectin to a sensor chip to which 3-amino-1-propanediol is fixed via an amino group was measured using Biacore (GE Healthcare Biosciences) under the presence of various kinds of compounds that were serially diluted. Recombinant human intelectin-1 was used as intelectin. The above-mentioned compound was a compound containing or not containing a diol group. Specifically, the compound was glycerol, 1,2-propanediol, 1,3-propanediol, 1-propanol, ethylene glycol, ethanol, 2-methoxyethanol, galactose, 2-acetamido-2-deoxy-4-O-beta-D-galactopyranosyl-D-glucopyranose (Galp-GlcNAc), 2-acetamido-2-deoxy-4-O-beta-D-galactofuranosyl-D-glucopyranose (Galf-GlcNAc), D-ribose, or L-ribose.
Intelectin was used at the final concentration of 0.5 microgram/mL. 10 mM HEPES (pH 7.0) containing 1 mM CaCl2, 150 mM NaCl, and 0.03% Tween 20 was used as the measuring buffer. The binding of intelectin measured using the sample that was not added with an above-mentioned compound was considered 100%, and the binding of intelectin in each sample was measured.

T1 sequence (Q8WWA0 19-298 V109D): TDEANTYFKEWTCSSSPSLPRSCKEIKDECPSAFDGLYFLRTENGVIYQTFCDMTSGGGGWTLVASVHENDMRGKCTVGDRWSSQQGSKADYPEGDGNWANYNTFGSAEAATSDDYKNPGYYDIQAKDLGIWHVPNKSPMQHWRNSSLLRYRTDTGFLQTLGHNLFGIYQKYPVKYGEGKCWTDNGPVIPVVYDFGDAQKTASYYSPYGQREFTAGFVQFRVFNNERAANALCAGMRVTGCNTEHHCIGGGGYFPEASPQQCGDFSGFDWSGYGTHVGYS

| Compound | IC50 |
| --- | --- |
| OCCCCO [1,4-butanediol] | > 100 mM |
| O=C(CO)[C@@H](O)[C@H](O)[C@H](O)CO [D-fructose] | 9 mM |
| O=C[C@H](O)[C@@H](O)[C@@H](O)[C@H](O)CO [D-galactose] | 11 mM |
| O=C[C@H](O)[C@@H](O)[C@H](O)[C@H](O)CO [D-glucose] | 18 mM |
| O=C[C@@H](O)[C@@H](O)[C@H](O)[C@H](O)CO [D-mannose] | 16 mM |
| O=C(CO)[C@@H](O)[C@H](O)[C@@H](O)CO [L-sorbose] | 14 mM |
| OCCO [ethylene glycol] | 2.2 mM |

Same assay, conditions: Biacore; intelectin 0.5 microgram/mL; sensor chip with 3-amino-1-propanediol fixed; 10 mM HEPES pH 7.0, 1 mM CaCl2; read-out: IC50 for inhibition of the binding of intelectin and the diol group

| Compound | IC50 |
| --- | --- |
| CCC(O)CO (stereo not drawn) [1,2-butanediol] | 0.8 mM |
| CC(O)CO (stereo not drawn) [1,2-propanediol] | 0.9 mM |
| CC(O)CCO (stereo not drawn) [1,3-butanediol] | 35 mM |
| OCCCO [1,3-propanediol] | 30 mM |
| CCCO [1-propanol] | > 100 mM |
| COC1(C(=O)O)C[C@H](O)[C@@H](NC(C)=O)[C@H]([C@H](O)[C@H](O)CO)O1 (stereo partly drawn) [2-O-methyl-D-N-acetylneuraminic acid] | 6 mM |
| O=CC[C@@H](O)[C@@H](O)[C@H](O)CO [2-deoxygalactose] | 1.1 mM |
| O=CC[C@H](O)[C@H](O)CO [2-deoxyribose] | 1.8 mM |
| COCCO [2-methoxyethanol] | > 100 mM |
| NCC(O)CO (stereo not drawn) [3-amino-1,2-propanediol] | 1.8 mM |
| NCCCO [3-amino-1-propanol] | > 100 mM |
| C[C@@H](O)CO [(R)-1,2-propanediol] | 1 mM |
| C[C@@H](O)[C@@H](C)O [(R,R)-2,3-butanediol] | 5 mM |
| C[C@H](O)CO [(S)-1,2-propanediol] | 1.2 mM |
| C[C@H](O)[C@H](C)O [(S,S)-2,3-butanediol] | 5 mM |
| O=P(O)(O)OC(CO)CO [Beta-glycerophosphate] | > 100 mM |
| O=C[C@@H](O)[C@H](O)[C@H](O)CO [D-arabinose] | 30 mM |
| C[C@@H](O)[C@H](O)[C@H](O)[C@@H](O)C=O [D-fucose] | 60 mM |
| O=C[C@@H](O)[C@@H](O)[C@H](O)CO [D-lyxose] | 22 mM |
| O=C[C@H](O)[C@H](O)[C@H](O)CO [D-ribose] | 0.5 mM |

| Compound | IC50 |
| --- | --- |
| O=C[C@H](O)[C@@H](O)[C@H](O)CO [D-xylose] | 3.3 mM |
| NCCO [Ethanolamine] | > 100 mM |
| CC(=O)N[C@H]1C(O)O[C@H](CO)[C@@H](O[C@@H]2O[C@@H]([C@H](O)CO)[C@H](O)[C@H]2O)[C@@H]1O (stereo partly drawn) [Galf-GlcNAc, 2-acetamido-2-deoxy-4-O-beta-D-galactofuranosyl-D-glucopyranose] | 1.4 mM |
| CC(=O)N[C@H]1C(O)O[C@H](CO)[C@@H](O[C@@H]2O[C@H](CO)[C@H](O)[C@H](O)[C@H]2O)[C@@H]1O (stereo partly drawn) [Galp-GlcNAc, 2-acetamido-2-deoxy-4-O-beta-D-galactopyranosyl-D-glucopyranose] | 13 mM |
| O=C[C@H](O)[C@@H](O)[C@@H](O)CO [L-arabinose] | 22 mM |
| O=C1O[C@H]([C@@H](O)CO)C(O)=C1O [L-ascorbic acid] | 0.8 mM |
| C[C@H](O)[C@@H](O)[C@@H](O)[C@H](O)C=O [L-fucose] | > 100 mM |
| O=C[C@H](O)[C@H](O)[C@@H](O)CO [L-lyxose] | 13 mM |
| C[C@H](O)[C@H](O)[C@@H](O)[C@@H](O)C=O [L-rhamnose] | 30 mM |
| O=C[C@@H](O)[C@@H](O)[C@@H](O)CO [L-ribose] | 0.3 mM |
| O=C[C@@H](O)[C@H](O)[C@@H](O)CO [L-xyrose] | 9 mM |
| CC(=O)N[C@H]1C(O)O[C@H](CO)[C@@H](O)[C@@H]1O (stereo partly drawn) [N-acetylglucosamine] | 50 mM |
| NC(CO)(CO)CO [Tris] | 14 mM |
| O=P(O)(O)OCC(O)CO (stereo not drawn) [alpha-glycerophosphate] | 1.2 mM |
| CCO [ethanol] | > 100 mM |
| OCC(O)CO [glycerol] | 0.8 mM |
| C[C@H](O)[C@@H](C)O [meso-2,3-butanediol] | 1.8 mM |
| CCCC(=O)OCC(O)CO (stereo not drawn) [monobutyrin] | 0.8 mM |
| OC[C@@H](O)[C@@H](O)[C@@H](O)CO [ribitol] | 1.2 mM |

Biological target: T1, Recombinant human intelectin-1
Assay: Binding of monoacylglycerol and intelectin (precipitation, SDS-PAGE, Example 5)
Conditions: lipid 100 micro M in medium containing intelectin, 15 minutes at 37 deg C
Experimental: Monoacylgrycerols such as monopalmitin and monoolein are used as a component of micelles or liposomes. 1-monopalmitin, 2-monopalmitin, or 1-palmitoyl lysophosphatidic acid as a negative control at the final concentration of 100 micro M was added to 500 microliters of a medium containing intelectin, and the medium was stirred intensely and incubated for 15 minutes at 37 deg C. Recombinant human intelectin-1 was used as intelectin. By the above-mentioned procedures, it is expected that insoluble aggregates having a micelle-like structure with the diol group facing outwards and the acyl group facing inwards are formed and intelectin binds on the surface.
Subsequently, the samples were cooled for 15 minutes at 4 deg C. and centrifuged, and the precipitation was collected, washed once with buffer, and dissolved in sample buffer. Samples were then separated by SDS-PAGE and stained with Coomassie Brilliant Blue.

| Compound | binding of intelectin to the lipid (SDS-PAGE) |
| --- | --- |
| CCCCCCCCCCCCCCCC(=O)OCC(O)CO (stereo not drawn) [1-monopalmitin] | bound |
| CCCCCCCCCCCCCCCC(=O)OCC(O)COP(=O)(O)O (stereo not drawn) [1-palmitoyl lysophosphatidic acid] | only slightly |
| CCCCCCCCCCCCCCCC(=O)OC(CO)CO [2-monopalmitin] | bound |

Biological target: IL-6 protein (Homo sapiens, UniProt P05231)
Assay: ELISA on IL-6 protein with the conjugate of antibody Fab fragment and intelectin (Example 8)
Format: binding
Conditions: conjugate as primary antibody; HRP-labeled anti-intelectin-1 antibody 2D2
Experimental: An ELISA analysis on IL-6 protein was performed using the conjugate generated in Example 6.
More specifically, IL-6 protein was adsorbed on an ELISA plate, and the conjugate generated in Example 6 was used for reaction as the primary antibody, and the horseradish peroxidase-labeled anti-intelectin-1 monoclonal antibody (2D2) was used for reaction as the secondary antibody. The detection was conducted using 3,3′,5,5′-tetramethylbenzidine.

IL-6 protein, sequence (P05231 30-212): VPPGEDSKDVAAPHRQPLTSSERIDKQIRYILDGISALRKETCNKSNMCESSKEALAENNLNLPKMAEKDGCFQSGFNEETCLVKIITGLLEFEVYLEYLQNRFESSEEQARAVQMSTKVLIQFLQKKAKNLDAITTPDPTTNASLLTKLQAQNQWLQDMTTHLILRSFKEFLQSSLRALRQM

| Compound | binding to IL-6 protein (ELISA) |
| --- | --- |
| conjugate generated in Example 6: H chain Fab region of anti-IL-6 monoclonal antibody MH166 joined via one glycine to human intelectin-1 (S165A), co-expressed with MH166 L chain | bind to IL-6 protein |

Biological target: T2, Recombinant human TNF-alpha (Homo sapiens, UniProt P01375)
T2 construct: purchased Life Technologies
Assay: Affinity between the conjugate of TNFR2 and intelectin and TNF-alpha (Biacore, Example 11)
Format: binding
Conditions: TNF-alpha as analyte, ligand fixed to sensor chip
Experimental: The binding affinity between the conjugate generated in Example 7 and TNF-alpha was measured using Biacore (GE Healthcare Biosciences). The binding affinity between a commercially available anti-TNF formulation (Etanercept, soluble TNF receptor, product name “ Enbrel (registered trademark),” Takeda Pharmaceutical Company) and TNF-alpha was also measured as a control.
Recombinant human TNF-alpha (Life Technologies) was used as TNF-alpha.

T2 sequence (P01375 77-233 limits assumed): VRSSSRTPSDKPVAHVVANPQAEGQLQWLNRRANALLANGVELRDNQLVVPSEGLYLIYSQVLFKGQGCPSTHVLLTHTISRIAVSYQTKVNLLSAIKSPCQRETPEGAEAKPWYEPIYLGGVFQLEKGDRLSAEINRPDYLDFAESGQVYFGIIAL

| Compound | association rate constant Ka | dissociation rate constant Kd |
| --- | --- | --- |
| Etanercept | 1.09e+06 M⁻¹ s⁻¹ | 0.000342 s⁻¹ |

Same assay, conditions: TNF-alpha as analyte, ligand fixed to sensor chip; read-out: dissociation constant KD

| Compound | Kd |
| --- | --- |
| Etanercept | 0.313 nM |

Biological target: T2, Recombinant human TNF-alpha
Assay: Inhibitory effect on cytotoxicity by TNF-alpha in L929 cells (Example 12)
Format: cell-based, mouse
Conditions: actinomycin D 2.12 micro M, TNF-alpha 1 ng/mL, 24 hours
Experimental: Actinomycin D at the final concentration of 2.12 micro M, recombinant human TNF-alpha (Life Technologies) at the final concentration of 1 ng/mL, and serially diluted conjugates generated in Example 7 were added to the medium of L929, a mouse-derived cell line, and the cells were cultured for 24 hours at 37 deg C. Subsequently, the number of live cells were measured using a commercially available kit (model “CellTiter96 (Trademark),” Promega), and the cell survival rate was determined. Another experiment, where a commercially available anti-TNF formulation (Etanercept, soluble TNF receptor, product name “ Enbrel (registered trademark),” Takeda Pharmaceutical Company) was used instead of the conjugate generated in Example 7, was also performed as a control.

| Compound | cytotoxicity inhibitory activity (cell survival rate) |
| --- | --- |
| Etanercept | approximately equivalent cytotoxicity inhibitory activities |
